{
  "source": "paper PMC2737686",
  "about": "(Virology, 2009)",
  "key": {"[1]": {"test_system": "ε RNA", "test": "Filter-binding assay of peptides, ε RNA", "design": "species or system Duck hepatitis B virus", "settings": "peptide 10 pMol to 0.3 pMol on filter; 32P-labeled ε RNA"}, "[2]": {"test_system": "DHBV core gene RNA", "test": "Filter-binding assay of peptides, DHBV core gene RNA", "design": "species or system Duck hepatitis B virus", "settings": "32P-labeled DHBV core gene RNA"}, "[3]": {"test_system": "double-stranded DNA fragment", "test": "Filter-binding assay of peptides, double-stranded DNA", "settings": "32P-labeled double-stranded DNA fragment"}},
  "note": "Peptide text beside a SMILES is read from it.",
  "data": [
    {"smiles": "CC[C@H](C)[C@H](NC(=O)[C@H](CCCNC(=N)N)NC(=O)[C@H](CC(N)=O)NC(=O)[C@@H]1CCCN1C(=O)[C@H](Cc1c[nH]c2ccccc12)NC(=O)[C@@H](N)CO)C(=O)N[C@H](C(=O)NCC(=O)N[C@@H](CCCCN)C(=O)N[C@@H](CC(C)C)C(=O)N[C@@H](Cc1ccccc1)C(=O)N[C@@H](CC(C)C)C(=O)N[C@H](C(=O)N[C@@H](CC(=O)O)C(=O)N[C@@H](CCCCN)C(=O)N[C@@H](CC(N)=O)C(=O)N[C@@H](CO)C(=O)N[C@@H](CCCNC(=N)N)C(=O)N[C@@H](CC(N)=O)C(=O)N[C@H](C(=O)N[C@@H](CCC(=O)O)C(=O)N[C@@H](CCC(=O)O)C(=O)N[C@@H](C)C(=O)N[C@@H](CCCNC(=N)N)C(=O)N[C@@H](CC(C)C)C(=O)N[C@H](C(=O)N[C@H](C(=O)N[C@@H](CC(=O)O)C(=O)N[C@@H](Cc1ccccc1)C(=O)N[C@@H](CO)C(=O)N[C@@H](CCC(N)=O)C(=O)N[C@@H](Cc1ccccc1)C(=O)N[C@@H](CO)C(=O)N[C@@H](CCCCN)C(=O)NCC(=O)N[C@@H](CCCCN)C(=O)O)C(C)C)C(C)C)[C@@H](C)O)C(C)C)[C@@H](C)O", "note": "[RT1C] (H-SWPNRITGKLFLVDKNSRNTEEARLVVDFSQFSKGK-OH; N-terminus and C-terminus assumed)", "values": [
      {"measurement": "RNA binding to ε, relative (peptide titration)", "setting": "[1]", "value": "bound RNA less well than the T3B peptide"},
      {"measurement": "Binding to irrelevant DHBV core gene RNA", "setting": "[2]", "value": "able to bind to an irrelevant RNA derived from the DHBV core gene"},
      {"measurement": "Binding to double-stranded DNA", "setting": "[3]", "value": "able to bind to an irrelevant RNA derived from the DHBV core gene and to a double-stranded DNA fragment"}
    ]}
  ]
}
